Test [1] has as its system CTLL2. The test can be described thus: Cellular screening, CTLL2 cells, Alamar Blue. To be noted: Mus musculus, CTLL-2, read-out: CTLL2 IC50_nM. The test is classed as cell-based. How it is done: Cell suspensions were prepared by harvesting cells from culture (the cells used in this test were in late log phase growth with high viability.) Cells were diluted in the appropriate growth medium, as described above, to 1.1× final concentration (from 50,000 cell/mL to 200,000 cell/mL, depending on cell line).
Compounds to be tested were added (10 μL, 10× final concentration) to a flat bottomed 96-well plate. The cellular suspension (90 μL per well) was then added, and the plate incubated for 40 hr at 37° C., 5% CO2. Alamar Blue 10 μL per well was added and the plates returned to the incubator for a further 4-6 hours. The plates were then read at 544 nm.
Background: Resazurin is reduced to fluorescent resorufin, in cell work by metabolically active cells.

In test [2] the target is T1, human JAK3 (Homo sapiens, UniProt P52333).
T1 construct: The kinase domain of human JAK3 was amplified; GST (N); made in house; host or cells: Sf9 insect cells (baculovirus)
Briefly: Alphascreen tyrosine kinase enzyme assay, JAK3 kinase domain. Particulars: read-out: JAK3 IC50_nM. The test is classed as biochemical. How it is done: (§1) For screening purposes, compounds (in 100% DMSO) were warmed at 37 degrees for at least 20 minutes before use. A […] stock was initially made in assay buffer, where the final concentration of DMSO was 0.3%. The stocks were then diluted in 384 well Optiplates (Packard) where the final concentration of the compound was […].
The kinase domain of human JAK3 was amplified from U937mRNA using the polymerase chain reaction with the following primers: […]
The JAK3 PCR products were cloned into the pDest20 destination expression vector (Gibco). The JAK3 plasmid was then transformed into competent DH10Bac cells (Gibco), and the recombinant baculovirus was prepared via Sf9 insect cell transfection.
(§2) Baculovirus preparations from each of the constructs were infected into either one or five liters of Sf9 cells (Invitrogen) grown in SF-900 medium (Invitrogen) to a cell density of approximately 1-2×10^6 cells/ml. Cells were infected with virus at a MOI of 0.8-3.0. Cells were harvested and lysed. Tyrosine kinase domains were purified by affinity chromatography on a glutathione-agarose column (Scientifix Pty. Ltd. catalog #: GSH-200).
(§3) Kinase assays were performed in 384 well Optiplates (Packard) using an Alphascreen Protein Tyrosine Kinase PY100 detection kit The compounds were pre-incubated with affinity purified PTK domain in the presence of phosphotyrosine assay buffer (10 mM HEPES, pH 7.5, 100 mM MgCl2, 25 mM NaCl, […] and 0.1% Tween 20) for 20 minutes. The compounds were then incubated with substrate in the presence of ATP. The substrate used was susbtrate-1 with the sequence biotin-EGPWLEEEEEAYGWMDF-NH2 [SEQ. ID. NO. 13] (final concentration […]). For HCK 80 μm ATP was used and incubated for 60 minutes. Alphascreen phosphotyrosine acceptor beads followed by streptavidin donor beads at a concentration of 1/100 in stop buffer were added to each well under subdued light and incubated for 2-3 hours., The Alphascreen plates were read on a Packard Fusion Alpha instrument.

Test [3] addresses T2, human JAK1 (Homo sapiens, UniProt P23458).
T2 construct: The kinase domain of human JAK1 was amplified; GST (N); made in house; host or cells: Sf9 insect cells (baculovirus)
The test can be described thus: Alphascreen tyrosine kinase enzyme assay, JAK1 kinase domain. To be noted: read-out: JAK1 IC50_nM. The test is classed as biochemical. The protocol: as §1
The kinase domain of human JAK1 was amplified from U937mRNA using the polymerase chain reaction with the following primers: […]
The JAK1 PCR products were cloned into the pDest20 destination vector (Gibco). The JAK1 plasmid was then transformed into competent DH10Bac cells (Gibco), and the recombinant baculovirus was prepared via Sf9 insect cell transfection.
as §2, §3
Background: Alpha assays give light when donor and acceptor beads are brought close together.

Each structure is given as a SMILES string. pIC50: −log10 of the molar value.

T1 sequence (P52333 822-1111 limits assumed): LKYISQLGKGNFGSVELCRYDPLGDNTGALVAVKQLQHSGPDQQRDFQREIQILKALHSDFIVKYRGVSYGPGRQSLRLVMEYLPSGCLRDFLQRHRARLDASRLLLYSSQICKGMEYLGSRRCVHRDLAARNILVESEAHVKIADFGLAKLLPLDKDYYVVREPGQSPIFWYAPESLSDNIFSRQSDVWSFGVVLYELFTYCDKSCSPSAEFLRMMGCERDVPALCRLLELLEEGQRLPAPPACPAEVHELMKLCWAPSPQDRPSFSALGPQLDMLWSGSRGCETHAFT
T2 sequence (P23458 875-1153 limits assumed): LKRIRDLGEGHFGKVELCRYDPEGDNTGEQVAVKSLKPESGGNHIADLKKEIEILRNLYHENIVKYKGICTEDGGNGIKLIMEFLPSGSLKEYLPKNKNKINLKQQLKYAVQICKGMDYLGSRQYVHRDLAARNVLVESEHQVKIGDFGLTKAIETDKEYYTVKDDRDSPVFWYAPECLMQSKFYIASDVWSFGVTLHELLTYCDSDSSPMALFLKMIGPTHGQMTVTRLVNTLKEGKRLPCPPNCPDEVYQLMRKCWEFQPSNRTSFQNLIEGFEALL

With `C=CC(=O)Nc1ccc(Sc2nc(Nc3ccc(NS(C)(=O)=O)c(OC)c3)ncc2C)cc1` [Compound 296, N-(4-(2-(3-methoxy-4-(methylsulfonamido)phenylao)-5-methylpyrimidin-4-ylthio)phenyl)acrylamide], the pIC50 in test [1] is more than 6.00; in test [2], more than 7.00; in test [3] it was less than 6.00. With `C=CC(=O)Nc1ccc(Sc2nc(Nc3ccc(N4CCOCC4)cc3)ncc2C)cc1CC` [Compound 260, N-(2-ethyl-4-(5-methyl-2-(4-morpholinophenylao)pyrimidin-4-ylthio)phenyl)acrylamide], the pIC50 in test [1] was more than 5.30; in test [2], more than 7.00.

As to `Cc1cnc(Nc2cccc(N3CCN(C)CC3)c2)nc1Sc1ccc(N)cc1` [Compound 245, 4-(4-aophenylthio)-5-methyl-N-(3-(4-methylpiperazin-1-yl)phenyl)pyrimidin-2-ae], the results for the pIC50 in test [1] and in test [2] were more than 5.30 and more than 6.30, respectively. Turning to `C=CC(=O)Nc1ccc(Sc2nc(Nc3cccc(N4CCOCC4)c3)ncc2I)cc1` [Compound 269, N-(4-(5-iodo-2-(3-morpholinophenylao)pyrimidin-4-ylthio)phenyl)acrylamide], the pIC50 in test [2] was more than 7.00. On to `Nc1ccc(Sc2nc(Nc3cccc(N4CCOCC4)c3)ncc2I)cc1` [Compound 264, 4-(4-aophenylthio)-5-iodo-N-(3-morpholinophenyl)pyrimidin-2-ae], for which the pIC50 in test [1] is more than 5.30; in test [2], more than 6.30. The like results for `CC#CC(=O)Nc1ccc(Sc2ccnc(Nc3cccc(N4CCOCC4)c3)n2)cc1` [Compound 233, N-(4-(2-(3-morpholinophenylao)pyrimidin-4-ylthio)phenyl)but-2-ynamide] were, in that order, more than 5.30 and more than 7.00. Consider `C=CC(=O)Nc1ccc(Sc2ccnc(Nc3ccc(N4CCN(C)CC4)cc3)n2)cc1` [Compound 238, N-(4-(2-(4-(4-methylpiperazin-1-yl)phenylao)pyrimidin-4-ylthio)phenyl)acrylamide], for which the pIC50 in test [2] is more than 7.00.

Turning to `CC#CC(=O)Nc1cccc(Sc2ccnc(Nc3cccc(N4CCOCC4)c3)n2)c1` [Compound 232, N-(3-(2-(3-morpholinophenylao)pyrimidin-4-ylthio)phenyl)but-2-ynamide], the pIC50 in test [2] is more than 7.00. For the molecule `Cc1cc(Sc2nc(Nc3ccc(N4CCOCC4)cc3)ncc2C)ccc1N` [Compound 255, 4-(4-ao-3-methylphenylthio)-5-methyl-N-(4-morpholinophenyl)pyrimidin-2-ae], the pIC50 in test [1] is less than 4.70; in test [2], more than 6.30. As for `C=CC(=O)Nc1ccc(Sc2nc(Nc3cccc(OC)c3)ncc2C)cc1` [Compound 235, N-(4-(2-(3-methoxyphenylao)-5-methylpyrimidin-4-ylthio)phenyl)acrylamide], the pIC50 in test [2] was more than 7.00. With `C=CC(=O)Nc1ccc(Sc2nc(Nc3ccc(N4CCOCC4)nc3)ncc2C)cc1` [Compound 254, N-(4-(5-methyl-2-(6-morpholinopyridin-3-ylao)pyrimidin-4-ylthio)phenyl)acrylamide], the pIC50 was more than 6.00 in test [1] and more than 7.00 in test [2]. Take `Nc1ccc(Sc2nc(Nc3ccc(N4CCOCC4)cc3)ncc2F)cc1` [Compound 263, 4-(4-aophenylthio)-5-fluoro-N-(4-morpholinophenyl)pyrimidin-2-ae]: the pIC50 in test [1] is less than 4.70; in test [2], more than 6.30. For the molecule `Cc1cnc(Nc2ccc(N3CCOCC3)cc2)nc1Sc1ccc(N)nc1` [Compound 262, 4-(6-aopyridin-3-ylthio)-5-methyl-N-(4-morpholinophenyl)pyrimidin-2-ae], the pIC50 in test [1] is less than 4.70; in test [2], more than 6.30. Taken in the same sequence, the figures for `C=CC(=O)Nc1ccc(Sc2ccnc(Nc3cccc(O)c3)n2)cc1` [Compound 277, N-(4-(2-(3-hydroxyphenylao)pyrimidin-4-ylthio)phenyl)acrylamide] were more than 6.00 and more than 7.00. With `CC#CC(=O)Nc1cccc(Nc2nccc(SC)n2)c1` [Compound 8, N-(3-(4-(methylthio)pyrimidin-2-ylao)phenyl)but-2-ynamide], the pIC50 in test [1] is more than 4.70; in test [2] it was more than 7.00. Taken in the same sequence, the figures for `C=CC(=O)Nc1ccc(Nc2nccc(SC)n2)cc1` [Compound 13, N-(4-(4-(methylthio)pyrimidin-2-ylao)phenyl)acrylamide] were less than 4.70 and more than 7.00.

With `C=CC(=O)Nc1ccc(Sc2nc(Nc3ccc(N4CCC(CO)CC4)cc3)ncc2Br)cc1` [Compound 253, N-(4-(5-bromo-2-(4-(4-(hydroxymethyl)piperidin-1-yl)phenylao)pyrimidin-4-ylthio)phenyl)acrylamide], the figures for the pIC50 in test [1] and in test [2] were more than 6.00 and more than 7.00, respectively.

In the case of `C=CC(=O)Nc1ccc(Sc2nc(Nc3ccc(C)c(Br)c3)ncc2C)cc1` [Compound 242, N-(4-(2-(3-bromo-4-methylphenylao)-5-methylpyrimidin-4-ylthio)phenyl)acrylamide], the pIC50 in test [1] is less than 4.70; in test [2], more than 6.30.

For `C=CC(=O)Nc1ccc(Sc2nc(Nc3ccc(N4CCN(C)CC4)c(OC)c3)ncc2C)cc1` [Compound 249, N-(4-(2-(3-methoxy-4-(4-methylpiperazin-1-yl)phenylao)-5-methylpyrimidin-4-ylthio)phenyl)acrylamide], the pIC50 was more than 6.00 in test [1] and more than 7.00 in test [2]. On to `C=CC(=O)Nc1ccc(Sc2nc(Nc3ccc(C4CCN(C)CC4)cc3)ncc2C)cc1` [Compound 246, N-(4-(5-methyl-2-(4-(1-methylpiperidin-4-yl)phenylao)pyrimidin-4-ylthio)phenyl)acrylamide], for which the pIC50 in test [2] was more than 7.00; in test [3], less than 6.00. As for `Cc1cnc(Nc2ccc(N3CCN(C)CC3)cc2)nc1Sc1ccc(N)cc1` [Compound 244, 4-(4-aophenylthio)-5-methyl-N-(4-(4-methylpiperazin-1-yl)phenyl)pyrimidin-2-ae], the pIC50 in test [1] was more than 5.30; in test [2], more than 7.00. Consider `C=CC(=O)Nc1ccc(Sc2ccnc(Nc3ccc(O)cc3)n2)cc1` [Compound 276, N-(4-(2-(4-hydroxyphenylao)pyrimidin-4-ylthio)phenyl)acrylamide], for which the figures for the pIC50 in test [1] and in test [2] were more than 6.00 and more than 7.00, respectively. Take `Cc1cnc(Nc2ccc(N3CCOCC3)cc2)nc1Sc1ccc(N)cc1Cl` [Compound 251, 4-(4-ao-2-chlorophenylthio)-5-methyl-N-(4-morpholinophenyl)pyrimidin-2-ae]: the figures for the pIC50 in test [1] and in test [2] were less than 4.70 and more than 7.00, respectively. Turning to `COc1ccc(Nc2ncc(C)c(Sc3ccc(N)cc3)n2)cc1OC` [Compound 240, 4-(4-aophenylthio)-N-(3,4-dimethoxyphenyl)-5-methylpyrimidin-2-ae], the pIC50 in test [1] was more than 5.30; in test [2] it was more than 6.30. Taken in the same sequence, the figures for `C=CC(=O)Nc1ccc(Sc2nc(Nc3ccc(N4CCOCC4)cc3)ncc2C)cc1C` [Compound 259] were more than 6.00 and more than 7.00.

Regarding `C=CC(=O)Nc1ccc(Sc2ccnc(Nc3cccc(CO)c3)n2)cc1` [Compound 278, N-(4-(2-(3-(hydroxymethyl)phenylao)pyrimidin-4-ylthio)phenyl)acrylamide], the pIC50 in test [2] was more than 7.00. Regarding `C=CC(=O)Nc1ccc(Sc2nc(Nc3cccc(N4CCOCC4)c3)ncc2C)cc1` [Compound 237, N-(4-(5-methyl-2-(3-morpholinophenylao)pyrimidin-4-ylthio)phenyl)acrylamide], the pIC50 in test [1] was more than 6.00; in test [2], more than 7.00. `N#CCC(=O)Nc1cccc(Sc2ccnc(Nc3ccc(N4CCOCC4)cc3)n2)c1` [Compound 24, N-(3-(2-(4-morpholinophenylamino)pyrimidin-4-ylthio)phenyl)-2-cyanoacetamide]: the pIC50 in test [1] was more than 4.70; in test [3], less than 6.00. In the case of `C=CC(=O)Nc1cccc(Nc2nccc(Sc3ccccc3)n2)c1` [Compound 16, N-(3-(4-(phenylthio)pyrimidin-2-ylamino)phenyl)acrylamide], the pIC50 was more than 5.30 in test [1] and more than 7.00 in test [2].

(Values after patent US8846704B2, “Thiopyrimidine-based compounds and uses thereof” (YM Biosciences Austraila Pty Ltd, priority 2007, dated 2014).)
